{"source": "ChEMBL document CHEMBL5550204", "about": "“Discovery of ZJCK-6-46: A Potent, Selective, and Orally Available Dual-Specificity Tyrosine Phosphorylation-Regulated Kinase 1A Inhibitor for the Treatment of Alzheimer's Disease” (J Med Chem, 2024)", "key": {"[1]": {"assay": "Apparent permeability across basolateral to apical side in dog MDCK-MDR1 cells at 5 uM incubated for 90 mins by LC-MS/MS analysis", "format": "ADME, cell-based, Canis lupus familiaris"}, "[2]": {"assay": "Clearance in Sprague-Dawley rat at 2 mg/kg,iv measured upto 24 hrs by LC-MS/MS analysis", "format": "ADME, organism-based", "details": "in vivo"}, "[3]": {"biological_target": "Dual specificity tyrosine-phosphorylation-regulated kinase 1B (Homo sapiens, UniProt Q9Y463)", "sequence (Q9Y463 whole entry)": "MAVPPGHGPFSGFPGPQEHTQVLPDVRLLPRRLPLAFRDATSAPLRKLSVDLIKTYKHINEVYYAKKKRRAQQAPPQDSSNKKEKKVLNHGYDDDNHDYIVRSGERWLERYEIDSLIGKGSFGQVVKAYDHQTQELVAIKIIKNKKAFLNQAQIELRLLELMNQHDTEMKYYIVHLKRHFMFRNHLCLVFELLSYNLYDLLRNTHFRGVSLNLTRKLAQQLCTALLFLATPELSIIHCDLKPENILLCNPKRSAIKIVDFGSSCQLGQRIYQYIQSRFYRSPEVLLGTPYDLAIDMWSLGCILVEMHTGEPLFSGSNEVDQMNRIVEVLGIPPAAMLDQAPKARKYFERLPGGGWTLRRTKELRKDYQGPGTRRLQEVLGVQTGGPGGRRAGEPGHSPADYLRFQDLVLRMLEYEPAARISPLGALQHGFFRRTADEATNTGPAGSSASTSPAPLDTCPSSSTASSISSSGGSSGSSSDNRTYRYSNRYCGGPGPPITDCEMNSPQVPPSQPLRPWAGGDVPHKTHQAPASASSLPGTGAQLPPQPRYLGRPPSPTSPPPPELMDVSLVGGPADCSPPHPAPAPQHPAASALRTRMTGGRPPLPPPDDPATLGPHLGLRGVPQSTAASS", "assay": "Inhibition of DYRK1B (unknown origin) preincubated with enzyme for 10 mins followed by substrate and ATP addition measured after 60 mins by ADP-Glo reagent based assay"}, "[4]": {"assay": "Drug concentration in Sprague-Dawley rat plasma at 10 mg/kg,po measured after 6 hrs by LC-MS/MS analysis", "format": "ADME, organism-based"}, "[5]": {"biological_target": "CYP2E1 (Homo sapiens, UniProt P05181)", "sequence (P05181 whole entry)": "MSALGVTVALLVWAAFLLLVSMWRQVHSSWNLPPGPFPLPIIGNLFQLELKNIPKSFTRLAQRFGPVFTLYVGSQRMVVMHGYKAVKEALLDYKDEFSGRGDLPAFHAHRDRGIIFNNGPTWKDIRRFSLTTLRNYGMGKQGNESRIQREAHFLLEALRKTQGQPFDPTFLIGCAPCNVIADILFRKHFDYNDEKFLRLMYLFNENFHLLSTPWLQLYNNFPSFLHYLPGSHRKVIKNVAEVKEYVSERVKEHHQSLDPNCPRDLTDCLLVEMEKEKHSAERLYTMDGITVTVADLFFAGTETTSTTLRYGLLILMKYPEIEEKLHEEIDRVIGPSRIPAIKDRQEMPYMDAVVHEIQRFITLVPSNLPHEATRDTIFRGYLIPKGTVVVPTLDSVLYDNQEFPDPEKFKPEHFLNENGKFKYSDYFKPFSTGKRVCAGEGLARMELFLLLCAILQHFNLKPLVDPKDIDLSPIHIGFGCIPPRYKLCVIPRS", "assay": "Inhibition of CYP2E1 in human liver microsomes using chlorzoxazone as substrate at 10 uM preincubated for 10 mins followed by NADPH addition and measured after 40 mins by LC-MS/MS analysis relative to control", "details": "probe chlorzoxazone"}, "[6]": {"assay": "MRT (0 to t) in Sprague-Dawley rat at 2 mg/kg,iv measured upto 24 hrs by LC-MS/MS analysis", "format": "ADME, organism-based", "details": "in vivo"}, "[7]": {"assay": "Acute toxicity in C57BL/6 mouse assessed as histopathological change in kidney at 500 mg/kg,po observed after 14 days by hematoxylin-eosin staining based analysis", "format": "organism-based", "details": "in vivo, 336 h, time 14 day"}, "[8]": {"biological_target": "CYP2D6 (Homo sapiens, UniProt P10635)", "sequence (P10635 whole entry)": "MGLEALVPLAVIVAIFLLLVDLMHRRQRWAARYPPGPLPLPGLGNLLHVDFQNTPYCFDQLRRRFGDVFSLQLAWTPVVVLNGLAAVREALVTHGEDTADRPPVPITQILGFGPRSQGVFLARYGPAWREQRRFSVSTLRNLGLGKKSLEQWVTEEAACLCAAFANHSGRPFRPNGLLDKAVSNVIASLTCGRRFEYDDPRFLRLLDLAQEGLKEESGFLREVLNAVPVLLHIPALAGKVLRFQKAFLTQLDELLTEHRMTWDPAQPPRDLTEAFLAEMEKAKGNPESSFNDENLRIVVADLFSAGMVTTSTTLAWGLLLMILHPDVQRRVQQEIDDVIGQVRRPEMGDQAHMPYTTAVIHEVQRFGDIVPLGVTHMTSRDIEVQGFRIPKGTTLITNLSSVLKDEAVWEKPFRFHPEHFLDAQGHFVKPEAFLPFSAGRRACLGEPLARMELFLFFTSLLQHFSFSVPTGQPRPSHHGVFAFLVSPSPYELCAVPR", "assay": "Inhibition of CYP2D6 in human liver microsomes using dextromethorphan as substrate at 10 uM preincubated for 10 mins followed by NADPH addition and measured after 40 mins by LC-MS/MS analysis relative to control", "format": "ADME, Microsome", "details": "probe dextromethorphan, time 50 min"}, "[9]": {"test_system": "Mus musculus", "assay": "Antialzheimer activity in okadaic acid-induced cognitive impairment C57BL/6 mouse assessed as increase in cognitive function at 10 to 30 mg/kg,po measured after 7 days by Morris water maze test", "format": "functional, organism-based", "details": "dose 10-30 mg/kg, time 7.0 day"}, "[10]": {"assay": "Acute toxicity in C57BL/6 mouse assessed as change in kidney weight at 500 mg/kg,po observed after 14 days", "format": "organism-based", "details": "in vivo, 336 h, time 14 day"}, "[11]": {"biological_target": "Dual specificity tyrosine-phosphorylation-regulated kinase 2 (Homo sapiens, UniProt Q92630)", "sequence (Q92630 whole entry)": "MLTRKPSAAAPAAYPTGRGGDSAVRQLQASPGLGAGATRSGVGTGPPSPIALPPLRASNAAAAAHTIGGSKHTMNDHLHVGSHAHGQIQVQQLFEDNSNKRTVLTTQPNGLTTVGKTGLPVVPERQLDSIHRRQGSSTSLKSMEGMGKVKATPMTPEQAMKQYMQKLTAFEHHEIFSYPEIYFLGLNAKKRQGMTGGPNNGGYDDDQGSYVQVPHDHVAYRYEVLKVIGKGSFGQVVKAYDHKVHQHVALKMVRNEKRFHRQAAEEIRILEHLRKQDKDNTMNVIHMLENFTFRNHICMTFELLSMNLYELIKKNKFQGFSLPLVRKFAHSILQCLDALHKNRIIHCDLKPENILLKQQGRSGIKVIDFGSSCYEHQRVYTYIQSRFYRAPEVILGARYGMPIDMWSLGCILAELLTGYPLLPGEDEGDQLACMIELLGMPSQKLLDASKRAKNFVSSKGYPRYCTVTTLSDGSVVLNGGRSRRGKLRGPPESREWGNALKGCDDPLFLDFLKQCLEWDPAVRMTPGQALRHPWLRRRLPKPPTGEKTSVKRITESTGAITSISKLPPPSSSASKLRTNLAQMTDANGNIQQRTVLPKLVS", "assay": "Inhibition of DYRK2 (unknown origin) preincubated with enzyme for 10 mins followed by substrate and ATP addition measured after 60 mins by ADP-Glo reagent based assay"}, "[12]": {"assay": "Acute toxicity in C57BL/6 mouse assessed as animal death at 500 mg/kg,po observed after 14 days", "format": "organism-based", "details": "in vivo, 336 h, time 14 day"}, "[13]": {"biological_target": "Cytochrome P450 2C19 (Homo sapiens, UniProt P33261)", "sequence (P33261 whole entry)": "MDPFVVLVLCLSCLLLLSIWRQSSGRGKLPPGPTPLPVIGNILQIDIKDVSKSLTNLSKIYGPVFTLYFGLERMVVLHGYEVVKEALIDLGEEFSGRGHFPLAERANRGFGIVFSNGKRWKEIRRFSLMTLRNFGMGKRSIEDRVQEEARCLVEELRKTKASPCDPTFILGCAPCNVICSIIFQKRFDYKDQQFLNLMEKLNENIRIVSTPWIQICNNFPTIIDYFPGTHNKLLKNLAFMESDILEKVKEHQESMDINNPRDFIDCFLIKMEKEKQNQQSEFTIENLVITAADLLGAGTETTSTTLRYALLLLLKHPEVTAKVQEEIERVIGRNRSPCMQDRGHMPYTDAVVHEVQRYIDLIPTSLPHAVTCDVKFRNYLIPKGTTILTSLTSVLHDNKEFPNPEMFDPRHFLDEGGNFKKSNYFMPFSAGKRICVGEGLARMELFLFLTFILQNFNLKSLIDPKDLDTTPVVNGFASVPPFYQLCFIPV", "assay": "Inhibition of CYP2C19 in human liver microsomes using mephenytoin as substrate preincubated for 10 mins followed by NADPH addition and measured after 40 mins by LC-MS/MS analysis", "format": "ADME, Microsome"}, "[14]": {"assay": "Toxicity in okadaic acid-induced cognitive impairment C57BL/6 mouse assessed as change in serum CRE level at 10 to 30 mg/kg,po once daily for 2 weeks", "format": "organism-based", "details": "in vivo, 336 h, dose 10-30 mg/kg"}, "[15]": {"test_system": "HEK-293T", "assay": "Cytotoxicity against human HEK293T cells expressing human Tau P301L mutant at 0.15625 to 10 uM incubated for 24 hrs by MTT assay", "format": "toxicity, cell-based", "details": "dose 0.15625-10 µM"}, "[16]": {"assay": "Toxicity in okadaic acid-induced cognitive impairment C57BL/6 mouse assessed as change in serum BUN level at 10 to 30 mg/kg,po once daily for 2 weeks", "format": "organism-based", "details": "in vivo, 336 h, dose 10-30 mg/kg"}, "[17]": {"assay": "Apparent volume of distribution in Sprague-Dawley rat at 2 mg/kg,iv measured upto 24 hrs by LC-MS/MS analysis", "format": "ADME, organism-based", "details": "in vivo, read-out: Vz"}, "[18]": {"test_system": "Mus musculus", "assay": "Antialzheimer activity in okadaic acid-induced cognitive impairment C57BL/6 mouse assessed as decrease in escape latency at 10 to 30 mg/kg,po once daily for 2 weeks by Morris water maze test", "format": "functional, organism-based", "details": "dose 10-30 mg/kg"}, "[19]": {"assay": "Toxicity in okadaic acid-induced cognitive impairment C57BL/6 mouse assessed as change in serum ALT level at 10 to 30 mg/kg,po once daily for 2 weeks", "format": "organism-based", "details": "in vivo, 336 h, dose 10-30 mg/kg"}, "[20]": {"assay": "Drug concentration in Sprague-Dawley rat plasma at 10 mg/kg,po measured after 2 hrs by LC-MS/MS analysis", "format": "ADME, organism-based"}, "[21]": {"assay": "Acute toxicity in C57BL/6 mouse assessed as change in heart weight at 500 mg/kg,po observed after 14 days", "format": "organism-based", "details": "in vivo, 336 h, time 14 day"}, "[22]": {"test_system": "Mus musculus", "assay": "Antialzheimer activity in okadaic acid-induced cognitive impairment C57BL/6 mouse assessed as reduction in nerve damage in hippocampal CA1 region at 10 to 30 mg/kg,po once daily for 2 weeks by Nissl staining based microscopy", "format": "functional, organism-based", "details": "dose 10-30 mg/kg"}}, "note": "Calls of active or inactive are those of the source. The calls are words filed in the database; no cut-off is given here.", "data": [{"smiles": "Cc1ccc2c(-c3ccc4ncnc(N[C@H](CO)c5ccccc5)c4c3)c[nH]c2n1", "values": [{"measurement": "Papp B→A at […], 5 µM", "setting": "[1]", "result": 30.6, "unit": "×10⁻⁶ cm/s"}, {"measurement": "clearance", "setting": "[2]", "result": 23.7, "unit": "mL/min/kg"}, {"measurement": "IC50", "setting": "[3]", "result": 1.02, "unit": "nM"}, {"measurement": "concentration at 6 h", "setting": "[4]", "result": 118, "unit": "ng/mL"}, {"measurement": "inhibition at 40 min, 10 µM", "setting": "[5]", "result": 0.07, "unit": "%"}, {"measurement": "MRT last at 24 h", "setting": "[6]", "result": 3.81, "unit": "h"}, {"measurement": "Activity", "setting": "[7]", "result": "Non-Toxic"}, {"measurement": "inhibition at 40 min, 10 µM", "setting": "[8]", "result": 65.8, "unit": "%"}, {"measurement": "Activity", "setting": "[9]", "result": "Active"}, {"measurement": "Activity", "setting": "[10]", "result": "Non-Toxic"}, {"measurement": "IC50", "setting": "[11]", "result": 14.2, "unit": "nM"}, {"measurement": "Activity", "setting": "[12]", "result": "Non-Toxic"}, {"measurement": "IC50", "setting": "[13]", "result": 1030, "unit": "nM"}, {"measurement": "Activity", "setting": "[14]", "result": "Non-Toxic"}, {"measurement": "Activity", "setting": "[15]", "result": "Non-Toxic"}, {"measurement": "Activity", "setting": "[16]", "result": "Non-Toxic"}, {"measurement": "Vd", "setting": "[17]", "result": 5.82, "unit": "L/kg"}, {"measurement": "Activity", "setting": "[18]", "result": "Active"}, {"measurement": "Activity", "setting": "[19]", "result": "Non-Toxic"}, {"measurement": "concentration at 2 h", "setting": "[20]", "result": 141, "unit": "ng/mL"}, {"measurement": "Activity", "setting": "[21]", "result": "Non-Toxic"}, {"measurement": "Activity", "setting": "[22]", "result": "Active"}]}]}
